# Key:
# Tubulin [1] = conditions: reported by Shintani et al. 1997; cited from earlier work
# in vitro = conditions: bovine, pH 7.4
# Description: The BBMECs were grown on 0.4 μm polycarbonate membranes. […] Transport studies were performed in pH 7.4 standard buffer solutions, consisting of either Hank's balanced salt solution (HBSS) or phosphate buffered saline (PBS) supplemented with 0.63 mM CaCl2, 0.74 mM MgSO4, 5.3 mM glucose and 0.1 mM ascorbic acid (PBSA). Briefly, all studies were performed in 3 ml of PBSA in each donor and receiver chamber of the side-by-side diffusion chambers and stirred at 600 rpm at 37° C. The cells were allowed to equilibrate in PBSA for 30 minutes prior to each experiment and oriented such that apical or blood side of the cells face the donor chamber and the basolateral or brain side of the cells adhere to the polycarbonate membranes and face the receiver chamber of the diffusion apparatus. At each time point, a 100 μl sample was taken from the receiver compartment and immediately replaced with an equal volume of PBSA. The transport studies were performed in the presence or absence of CsA (5-10 μM). Monolayers were checked for trypan blue exclusion after experiments as well to assess general cell viability. The permeability of all monolayers used in these experiments was monitored for [^14C] sucrose leakage as a measure of potential TH-237A-induced loss of integrity. The radioactivity was quantified using liquid scintillation spectrometry.
# cellular microtubules = assay: Immunostaining of cellular microtubules; format: cell-based; conditions: 1 and 10 μM
# Description: Immunostaining of cellular microtubules—Cells were grown in monolayer on sterile slide cover slips in a 6-well plate and treated with paclitaxel or TH-237A for different periods of time. The cover slips were washed with phosphate-buffered saline and the cells fixed by treatment with 95% EtOH at −20° C. for 30 minutes. The cover slips were placed in a humidified chamber and treated with the primary antibody (a mouse anti-β-tubulin monoclonal antibody) for 2 hours to overnight at room temperature. This was followed by washing with phosphate-buffered saline and treatment with the secondary antibody (FITC goat anti-mouse) for 1 hour at room temperature. Cover slips were examined on a Nikon Optiphot fluorescence microscope.
# microtubules [2] = assay: Cold stability of microtubules; format: biochemical; conditions: 25 μM compound, on ice 15 minutes
# Description: In another experiment, the cold stability of microtubles was investigated. Microtubules were formed from MAP-free tubulin (2 mg/ml) and MTP (2 mg/ml) at 37° C. A sample was centrifuged at 50,000×g to determine the amount of polymer formed. To three other samples DMSO, 20 μM paclitaxel or 400 μM TH-237A was added, and the samples were placed on ice for 15 minutes before centrifuging at 4° C. Pellets were dissolved in 0.1 ml of 0.1 M NaOH and protein determinations were made on the supernatants and pellets. Cold-induced depolymerization leads to an increase in the supernatant protein concentration.
# Tubulin [3] = assay: Tubulin assembly centrifugation assay; format: biochemical; conditions: 1.0 μM compound
# Description: In this example, the mechanism of TH-237A's neuroprotective effects was investigated. In a first experiment, the microtubule-stabilizing ability of TH-237A was investigated using a tubulin assembly centrifugation assay. Tubulin (1.0 mg/ml), free of microtubule-associated proteins (“MAPs”), was incubated in PEM buffer (0.1 M Pipes, 1 mM EGTA, 1 mM MgSO4, pH 6.9), 4% DMSO, various concentrations of paclitaxel or TH-237A, with or without 0.5 mM GTP, in a total volume of 0.1 ml for 15 minutes at 37° C. Samples were centrifuged at 50,000×g for 4 minutes in a Beckman TL-100 ultracentrifuge. Protein determinations were performed on the supernatants and the amount of polymer formed was calculated from the difference between the starting concentration and the supernatant concentration. The maximum concentration of polymer was taken to be that formed at 25 μM paclitaxel. An experiment was also done using a tubulin preparation containing microtubule-associated proteins (“MTP”) at a protein concentration of 2 mg/ml without GTP.
# microtubules [4] = assay: Competitive binding of paclitaxel and TH-237A to microtubules; conditions: addition of 40 μM Taxol
# Description: Competitive binding of paclitaxel and TH-237A—Microtubules were formed from MTP (2 mg/ml) in the presence of 0.5 mM GTP. […] […] After 10 minutes at 37° C., the microtubules were collected by centrifugation and dissolved in 0.1 ml of 0.1 M NaOH. Protein and radioactivity determinations of the dissolved microtubules were performed.
Structure (SMILES),stimulation of tubulin polymerization relative to paclitaxel (Tubulin [1]),Papp (in vitro),polymerization of the microtubules in situ in the cells (cellular microtubules),cold-induced depolymerization of microtubules prevented (microtubules [2]),% of tubulin polymerized (Tubulin [3]),displacement of bound labeled TH-237A (100 μM) from microtubules (microtubules [4])
"OCC12CO[C@H](c3ccc(F)cc3)N1[C@@H](c1ccc(F)cc1)OC2 [GS-164, (3R,5R)-(3,5-bis(4-fluorophenyl)tetrahydro-1H-oxazolo[3,4-c]oxazol-7a-yl)methanol]",one-tenth,,,,,
"CC(=O)O[C@H]1C(=O)[C@@]2(C)[C@H]([C@H](OC(=O)c3ccccc3)[C@]3(O)C[C@H](OC(=O)[C@H](O)[C@@H](NC(=O)c4ccccc4)c4ccccc4)C(C)=C1C3(C)C)[C@]1(OC(C)=O)CO[C@@H]1C[C@@H]2O [Taxol, Paclitaxel]",,5 ×10⁻⁶ cm/s,clearly evident,~100%,75%,about 5%

# From patent publication US8318787B2, “Prodrugs of (3,5-bis(4-fluorophenyl)tetrahydro-1H-oxazolo[3,4-C]oxazol-7A-yl)methanol and derivatives thereof” (University of Kansas, priority 2005, dated 2012)
